Assays:
L1210 cells = assay: MTT cytotoxicity assay, 72 h; assay type: cell-based, murine; conditions: Mus musculus, 72 h; L1210, p53 wt; read-out: IC50 (mean ± SE) after 72 h continuous exposure
Protocol: Cells in a subconfluent phase are transferred to 96-well microtitre plates. L1210 cells are plated at a density of 1000 cells/well in 100 μl medium, while all other cell lines are plated at a density of 2000-25000 cells/well. The cells are left for 24 h prior to treatment to ensure exponential growth has been achieved, 24 h after plating (day 0), 100 μl of phosphatase inhibitor is added to each well, control wells received 100 μl of medium only. Drug exposure time is 72 h (day 3). The effect of phosphatase inhibition is tested in triplicate over a concentration range of […]−1×10^−8 M. Growth inhibitory effects are evaluated using the MTT assay and absorbance read at […]. The IC50 is the drug concentration at which cell growth is 50% inhibited based on the difference of optical density on day 0 and day 3 of drug exposure. Cytotoxicity is evaluated using a spectrophotometric assay which determines the percentage of cell growth following exposure of the cells to various concentrations of the phosphatase inhibitors for a period of 72 hours. The subsequent dose response curve is used to calculate IC50 values (the drug concentration at which cell growth is 50% inhibited).
Anti-cancer screening of the protein phosphatase inhibitors is assessed using the MTT assay. This assay determines cell viability by the ability of mitochondrial dehydrogenase to produce formazan crystals from 3-(4,5-dimethylthiazol-2-yl)-2,5-diphenyltetrazolium bromide. The viable cell number/well is directly proportional to the production of formazan, which following solubilization, can be measured spectrophotometrically (540 nm). This technique is also used by the National Cancer Institute to screen for new anticancer agents.
As described herein a number of cantharidin analogues have been synthesised and tested for their anticancer activity in nine cancer cell lines using the MTT assay after 72 h exposure. These new analogues are shown in FIG. 2 and have been designated MK-1 through to MK-9.

HT29 cells = assay: Cell cycle analysis, flow cytometry of propidium iodide stained cells; assay type: cell-based, human; conditions: for Cell Cycle Distribution, G1 / Cell Cycle Distribution, G2 + M / Cell Cycle Distribution, S / Cell Cycle Distribution, sub G1 / Cell cycle remark: 12 h
Protocol: (§1) The cells are fixed in 70% ethanol and stored at −20° C. until analysis is performed (1-2 weeks). After fixing, the cells are pelleted and incubated in PBS containing propidium iodide ([…]) and RNase A (200 mg/ml) for at least 30 min at room temperature. The samples (2×10^4 events) are analysed using a Becton Dickson FACScan, fluorescence is collected in fluorescence detector 2 (FL2), filter 575/30 nm band pass. Cell cycle distribution is assessed using Cell Quest software (Becton Dickson).
(§2) The ability of the protein phosphatase inhibitors to abrogate the G1 or G2 checkpoint of the cell cycle may be determined by cell cycle analysis using flow cytometry. Briefly, asynchronous cell cultures are harvested 18 h after 6 Gy irradiation and/or 12 h incubation with the protein phosphatase inhibitor. Depending upon the p53 status of the cell line, radiation treatment alone will induce arrest in either G1 and/or G2 phase of the cell cycle.
(§3) Data shown in Table 2 and FIG. 4 show the cell cycle response of L1210, HL60, HT29 and HCT116 cells to cantharidin and the new cantharidin analogues MK-2 and MK-4 after 12 h exposure. In summary, cantharidin and MK-2 produced a similar response and induced G2 arrest in all four cell lines tested. […] HL60 and HCT116 cells. […] The magnitude of the cell cycle arrest induced by these drugs directly correlated with their cytotoxicity in the respective cell lines. […] The cytotoxicity of the […]

HCT116 cells = assay: as above; assay type: cell-based, human
Protocol: as §1, §2, §3

HL60 cells = assay: as above; assay type: cell-based, human; conditions: for Cell Cycle Distribution, G1 / Cell Cycle Distribution, G2 + M / Cell Cycle Distribution, S / Cell Cycle Distribution, sub G1 / Cell cycle remark: 12 h
Protocol: as §1, §2, §3

SMILES: C[C@@]12C(=O)OC(=O)[C@]1(C)[C@H]1CC[C@@H]2O1 [Cantharidin, exo.exo-2.3-dimethyl-7-oxobicyclo[2.2.1]heptane-2,3-dicarboxylic acid anhydride]
- IC50 (L1210 cells): 18 µM
- Cell Cycle Distribution, G1 (HT29 cells; HT29, 1 μM): 46.2 percentage of total
- Cell Cycle Distribution, G2 + M (HT29 cells; HT29, 1 μM): 37.4 percentage of total
- Cell Cycle Distribution, S (HT29 cells; HT29, 1 μM): 7.8 percentage of total
- Cell Cycle Distribution, sub G1 (HT29 cells; HT29, 1 μM): 9.0 percentage of total
- Cell Cycle Distribution, G1 (HT29 cells; HT29, 5 μM): 47.4 percentage of total
- Cell Cycle Distribution, G2 + M (HT29 cells; HT29, 5 μM): 39.8 percentage of total
- Cell Cycle Distribution, S (HT29 cells; HT29, 5 μM): 9.3 percentage of total
- Cell Cycle Distribution, sub G1 (HT29 cells; HT29, 5 μM): 4.0 percentage of total
- Cell Cycle Distribution, G1 (HT29 cells; HT29, 10 μM): 42.7 percentage of total
- Cell Cycle Distribution, G2 + M (HT29 cells; HT29, 10 μM): 40.3 percentage of total
- Cell Cycle Distribution, S (HT29 cells; HT29, 10 μM): 14.6 percentage of total
- Cell Cycle Distribution, sub G1 (HT29 cells; HT29, 10 μM): 2.8 percentage of total
- Cell cycle remark (HT29 cells; HT29, 10 μM): G2 arrest
- Cell Cycle Distribution, G1 (HT29 cells; HT29, 50 μM): 46.0 percentage of total
- Cell Cycle Distribution, G2 + M (HT29 cells; HT29, 50 μM): 26.0 percentage of total
- Cell Cycle Distribution, S (HT29 cells; HT29, 50 μM): 14.7 percentage of total
- Cell Cycle Distribution, sub G1 (HT29 cells; HT29, 50 μM): 15.1 percentage of total
- Cell cycle remark (HT29 cells; HT29, 50 μM): Cell Death
- Cell cycle response (HT29 cells; HT29, 12 h exposure): G2 arrest
- Cell Cycle Distribution, G1 (HCT116 cells; HCT116, 1 μM, 12 h): 39.9 percentage of total
- Cell Cycle Distribution, G2 + M (HCT116 cells; HCT116, 1 μM, 12 h): 41.9 percentage of total
- Cell Cycle Distribution, S (HCT116 cells; HCT116, 1 μM, 12 h): 17.2 percentage of total
- Cell Cycle Distribution, sub G1 (HCT116 cells; HCT116, 1 μM, 12 h): 2.2 percentage of total
- Cell Cycle Distribution, G1 (HCT116 cells; HCT116, 5 μM, 12 h): 39.9 percentage of total
- Cell Cycle Distribution, G2 + M (HCT116 cells; HCT116, 5 μM, 12 h): 41.8 percentage of total
- Cell Cycle Distribution, S (HCT116 cells; HCT116, 5 μM, 12 h): 16.8 percentage of total
- Cell Cycle Distribution, sub G1 (HCT116 cells; HCT116, 5 μM, 12 h): 2.9 percentage of total
- Cell Cycle Distribution, G1 (HCT116 cells; HCT116, 10 μM, 12 h): 38.0 percentage of total
- Cell Cycle Distribution, G2 + M (HCT116 cells; HCT116, 10 μM, 12 h): 42.0 percentage of total
- Cell Cycle Distribution, S (HCT116 cells; HCT116, 10 μM, 12 h): 14.9 percentage of total
- Cell Cycle Distribution, sub G1 (HCT116 cells; HCT116, 10 μM, 12 h): 6.2 percentage of total
- Cell Cycle Distribution, G1 (HCT116 cells; HCT116, 50 μM, 12 h): 25.1 percentage of total
- Cell Cycle Distribution, G2 + M (HCT116 cells; HCT116, 50 μM, 12 h): 48.1 percentage of total
- Cell Cycle Distribution, S (HCT116 cells; HCT116, 50 μM, 12 h): 17.8 percentage of total
- Cell Cycle Distribution, sub G1 (HCT116 cells; HCT116, 50 μM, 12 h): 11.1 percentage of total
- Cell cycle remark (HCT116 cells; HCT116, 50 μM, 12 h): G2 arrest
- Cell cycle response (HCT116 cells; HCT116, 12 h exposure): G2 arrest
- Cell Cycle Distribution, G1 (HL60 cells; HL60, 1 μM): 44.0 percentage of total
- Cell Cycle Distribution, G2 + M (HL60 cells; HL60, 1 μM): 29.7 percentage of total
- Cell Cycle Distribution, S (HL60 cells; HL60, 1 μM): 26.1 percentage of total
- Cell Cycle Distribution, sub G1 (HL60 cells; HL60, 1 μM): 1.5 percentage of total
- Cell Cycle Distribution, G1 (HL60 cells; HL60, 5 μM): 41.4 percentage of total
- Cell Cycle Distribution, G2 + M (HL60 cells; HL60, 5 μM): 30.6 percentage of total
- Cell Cycle Distribution, S (HL60 cells; HL60, 5 μM): 27.7 percentage of total
- Cell Cycle Distribution, sub G1 (HL60 cells; HL60, 5 μM): 1.7 percentage of total
- Cell Cycle Distribution, G1 (HL60 cells; HL60, 10 μM): 41.8 percentage of total
- Cell Cycle Distribution, G2 + M (HL60 cells; HL60, 10 μM): 30.4 percentage of total
- Cell Cycle Distribution, S (HL60 cells; HL60, 10 μM): 27.5 percentage of total
- Cell Cycle Distribution, sub G1 (HL60 cells; HL60, 10 μM): 1.7 percentage of total
- Cell cycle remark (HL60 cells; HL60, 10 μM): G2 arrest
- Cell Cycle Distribution, G1 (HL60 cells; HL60, 50 μM): 16.2 percentage of total
- Cell Cycle Distribution, G2 + M (HL60 cells; HL60, 50 μM): 34.7 percentage of total
- Cell Cycle Distribution, S (HL60 cells; HL60, 50 μM): 31.6 percentage of total
- Cell Cycle Distribution, sub G1 (HL60 cells; HL60, 50 μM): 19.3 percentage of total
- Cell cycle remark (HL60 cells; HL60, 50 μM): Cell Death
- Cell cycle response (HL60 cells; HL60, 12 h exposure): G2 arrest

Source: patent publication US20060030616A1, “Anhydride modified cantharidin analogues useful in the treatment of cancer” (priority 1998, published 2006)
